The record followed here is patent US20180228780A1, “3-(1H-PYRROLO[2,3-C]PYRIDIN-2-YL)-1H-INDAZOLES AND THERAPEUTIC USES THEREOF” (Samumed, LLC, priority 2015, published 2018).

Assay type in all cases: cell-based
The subject of experiment [1] is Wnt activity (Sp5-Luc reporter, SW480 colon carcinoma cells). In words: Screening assay for Wnt activity: Sp5-Luc reporter gene assay in SW480 cells. The settings on record: Homo sapiens; for EC50: SW480 Sp5-Luc reporter, overnight incubation; for inhibition at 10 µM: SW480, read-out: percent inhibition at 10 μM. Summed up:
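SW480 colon carcinoma cells stably carrying Sp5 promoter (eight TCF/LEF sites)-driven firefly luciferase, plated at 4,000 cells/well in 1% FBS medium and incubated overnight at 37° C. Luminescence normalised to DMSO-only cells; EC50 from four-parameter variable-slope nonlinear regression.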
On the technique in general: Reporter assays use an easily measured gene product as a stand-in for the process of interest.

The subject of the next experiment is SW480 colon cancer cells. In words: Cell viability assay (CellTiter-Blue) in SW480 colon cancer cells. The conditions noted are these: Homo sapiens; for EC50: 96 h, SW480 cell viability, four days incubation; for inhibition at 10 µM: SW480, read-out: percent inhibition at 10 μM. Summed up:
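Fluorescence from resazurin reduced to resorufin by metabolically active cells was the read-out, taken after ~3 h with CellTiter-Blue.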

Experiment [2] has as its system Primary human fibroblasts derived from IPF patients (LL29 cells). In words: Inhibition of the fibrotic process: αSMA staining in TGF-β1-treated LL29 fibroblasts. The settings on record: Fibroblast; for EC50: 96 h, LL29 cells, TGF-β1 20 ng/mL, 4 days, % αSMA-positive cells; for inhibition at 10 µM: read-out: percent inhibition at 10 μM. The method in brief: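 LL29 IPF-patient lung fibroblasts plated in F12 with 1% FBS, treated with TGF-β1 plus compound; TGF-β1/DMSO wells served as controls. After 4 days incubation, SYTOX green (1 μM final) added for 30 min at room temperature; αSMA staining used as fibrosis read-out.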

In experiment [3] the test system is primary human mesenchymal stem cells (hMSCs). In words: Induction of chondrogenesis in hMSCs (nodule imaging, Rhodamine B / Nile Red). The settings on record: 6 days; for Emax: relative to TGF-β3 (10 ng/mL) positive control, read-out: Max. Activity as % TGF-β3 activity; for EC50: concentration required to induce 50% levels of chondrogenesis vs TGF-β3, read-out: Conc (nM) of 50% TGF-β3 activity. The source says:
Representative compounds were screened using primary human mesenchymal stem cells (hMSCs) to determine their ability to induce chondrogenesis (process by which cartilage is developed).
Primary human mesenchymal stem cells (hMSCs) were purchased from Lonza (Walkersville, Md.) and expanded in Mesenchymal Stem Cell Growth Media (Lonza). Cells between passage 3 and 6 were used for the experiments.
Area of nodules in each well was normalized to the average of 3 DMSO treated wells on the same plate using Excel (Microsoft Inc.). The normalized averages (fold change over DMSO) of 2 or 3 replicate wells for each compound concentration were calculated. Due to solubility limitations of some of the compounds, curve fitting was incomplete leading to inaccurate EC50 determinations.
Using TGF-β3 as a positive control, the concentration of representative compounds required to induce 50% levels of chondrogenesis is reported. In addition, the maximum activity of each compound and the respective dose that each compound reached maximum chondrogenesis activity is reported.

The test system of a further experiment is IL-6 (THP-1 cells). The experiment is described as follows: IL-6 inhibition in THP-1 monocytes (HTRF). The settings on record: Homo sapiens; for EC50: IL-6 inhibition, THP-1 cells, HTRF, 10-point dose-response starting from 10 μM; for inhibition at 10 µM: THP-1, read-out: percentage in parentheses printed under EC50 >10. Summed up:
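THP-1 cells serum-reduced (1% FBS, 24 h), plated 5000/well, stimulated with 500 ng/mL […] after 2 h and incubated a further 22 h at 37 °C. Secreted IL-6 quantified by HTRF (665/620 nm ratio), normalized to DMSO; EC50 from four-parameter fit, duplicates.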

Consider `CC(C)Nc1cncc(-c2ccc3[nH]nc(-c4cc5c(-c6cccnc6)cncc5[nH]4)c3c2)c1` [Compound 96, N-Isopropyl-5-(3-(4-(pyridin-3-yl)-1H-pyrrolo[2,3-c]pyridin-2-yl)-1H-indazol-5-yl)pyridin-3-amine], for which the EC50 was 670 nM in experiment [1], 836 nM in the experiment with SW480 colon cancer cells, 315 nM in experiment [2] and 128 nM in the experiment on IL-6 (THP-1 cells). Moreover, the Emax in experiment [3] turned out to be 42%.

`c1cncc(-c2cncc3[nH]c(-c4n[nH]c5ccc(-c6cncc(CN7CCCCC7)c6)cc45)cc23)c1` [Compound 99, 5-(5-(Piperidin-1-ylmethyl)pyridin-3-yl)-3-(4-(pyridin-3-yl)-1H-pyrrolo[2,3-c]pyridin-2-yl)-1H-indazole]: in experiment [1], the inhibition at 10 µM was found to be 31.2%. For the same compound, the EC50 in experiment [1] was more than 10000 nM; with SW480 colon cancer cells it was 3370 nM; in experiment [2] it was 4040 nM; with IL-6 (THP-1 cells), 5700 nM. In experiment [3], the Emax came to 40%.

On to `O=C(Nc1cncc(-c2ccc3[nH]nc(-c4cc5c(-c6cccnc6)cncc5[nH]4)c3c2)c1)C1CCCC1` [Compound 106, N-(5-(3-(4-(Pyridin-3-yl)-1H-pyrrolo[2,3-c]pyridin-2-yl)-1H-indazol-5-yl)pyridin-3-yl)cyclopentanecarboxamide], for which the EC50 was determined as 1400 nM in experiment [1], 2030 nM in the experiment with SW480 colon cancer cells, 2320 nM in experiment [2] and 209 nM with IL-6 (THP-1 cells). Further, the Emax in experiment [3] is 45%.

For `FC1(F)CCN(Cc2cncc(-c3ccc4[nH]nc(-c5cc6c(-c7cccnc7)cncc6[nH]5)c4c3)c2)C1` [Compound 110, 5-(5-((3,3-Difluoropyrrolidin-1-yl)methyl)pyridin-3-yl)-3-(4-(pyridin-3-yl)-1H-pyrrolo[2,3-c]pyridin-2-yl)-1H-indazole], the EC50 came to 526 nM in experiment [1]; 1280 nM in the experiment with SW480 colon cancer cells; 337 nM in experiment [2]; 900 nM in experiment [3]; 353 nM in the experiment on IL-6 (THP-1 cells). The Emax in experiment [3] is 256%.

For the compound `c1cncc(-c2cncc3[nH]c(-c4n[nH]c5ccc(-c6cncnc6)cc45)cc23)c1` [Compound 111, 3-(4-(pyridin-3-yl)-1H-pyrrolo[2,3-c]pyridin-2-yl)-5-(pyrimidin-5-yl)-1H-indazole], the inhibition at 10 µM is 14.5% in experiment [1], 7.5% with SW480 colon cancer cells, 46.5% in experiment [2] and 42.4% in the experiment with IL-6 (THP-1 cells). Further, the EC50 in experiment [1] was more than 10000 nM; with SW480 colon cancer cells, more than 10000 nM; in experiment [2] it was more than 10000 nM; in experiment [3], 2700 nM; with IL-6 (THP-1 cells), more than 10000 nM. Also, in experiment [3], the Emax came to 58%.

In the case of `CC(C)CC(=O)Nc1cncc(-c2ccc3[nH]nc(-c4cc5c(-c6ccncc6)cncc5[nH]4)c3c2)c1` [Compound 114], the EC50 in experiment [1] was 875 nM; in the experiment with SW480 colon cancer cells, more than 10000 nM; in experiment [2], more than 10000 nM; in experiment [3], 30 nM; in the experiment on IL-6 (THP-1 cells), more than 10000 nM. Besides, the inhibition at 10 µM was 24.8% with SW480 colon cancer cells, 47% in experiment [2] and 15.9% in the experiment on IL-6 (THP-1 cells). Besides, the Emax in experiment [3] was 70%.

Consider `CN(C)Cc1cncc(-c2ccc3[nH]nc(-c4cc5c(-c6ccncc6)cncc5[nH]4)c3c2)c1` [Compound 125], for which the EC50 is 1060 nM in experiment [1], 2170 nM in the experiment on SW480 colon cancer cells, 2440 nM in experiment [2] and 1160 nM in the experiment on IL-6 (THP-1 cells). In addition, the Emax in experiment [3] worked out at 18%.

As for `c1cc(-c2cncc3[nH]c(-c4n[nH]c5ccc(-c6cncc(CN7CCCC7)c6)cc45)cc23)ccn1` [Compound 126, 3-(4-(Pyridin-4-yl)-1H-pyrrolo[2,3-c]pyridin-2-yl)-5-(5-(pyrrolidin-1-ylmethyl)pyridin-3-yl)-1H-indazole], the EC50 in experiment [1] came to 3390 nM; in the experiment on SW480 colon cancer cells, 2310 nM; in experiment [2] it was 1490 nM; in the experiment on IL-6 (THP-1 cells), 2160 nM. For the same compound, the Emax in experiment [3] amounted to 48%.

Take `CCCC(=O)Nc1cncc(-c2ccc3[nH]nc(-c4cc5c(-c6ccncc6)cncc5[nH]4)c3c2)c1` [Compound 129, N-(5-(3-(4-(Pyridin-4-yl)-1H-pyrrolo[2,3-c]pyridin-2-yl)-1H-indazol-5-yl)pyridin-3-yl)butyramide]: the inhibition at 10 µM in experiment [1] was 25.5%; in the experiment on SW480 colon cancer cells, 15.5%. Besides, the EC50 was more than 10000 nM in experiment [1]; more than 10000 nM with SW480 colon cancer cells; 6200 nM in experiment [2]; 100 nM in experiment [3]; 1020 nM in the experiment on IL-6 (THP-1 cells). In experiment [3], the Emax was found to be 124%.

`O=C(Nc1cncc(-c2ccc3[nH]nc(-c4cc5c(-c6ccncc6)cncc5[nH]4)c3c2)c1)C1CC1` [Compound 132, N-(5-(3-(4-(Pyridin-4-yl)-1H-pyrrolo[2,3-c]pyridin-2-yl)-1H-indazol-5-yl)pyridin-3-yl)cyclopropanecarboxamide]: the EC50 in experiment [1] was 395 nM; in the experiment with SW480 colon cancer cells, more than 10000 nM; in experiment [2], more than 10000 nM; in the experiment with IL-6 (THP-1 cells), 765 nM. Also, the results for the inhibition at 10 µM (with SW480 colon cancer cells; in experiment [2]) were 20.6% and 35.6%, respectively. Also, the Emax in experiment [3] worked out at 37%.

Regarding `CC(C)CC(=O)Nc1cncc(-c2ccc3[nH]nc(-c4cc5c(N6CCCCC6)cncc5[nH]4)c3c2)c1` [Compound 170], the EC50 in experiment [1] came to 377 nM; with SW480 colon cancer cells, 279 nM; in experiment [2] it was 550 nM; in experiment [3], 2700 nM; with IL-6 (THP-1 cells), 46 nM. In addition, in experiment [3], the Emax came out at 113%.

Turning to `c1ncc(-c2ccc3[nH]nc(-c4cc5c(N6CCCCC6)cncc5[nH]4)c3c2)cc1CN1CCCC1` [Compound 182, 3-(4-(Piperidin-1-yl)-1H-pyrrolo[2,3-c]pyridin-2-yl)-5-(5-(pyrrolidin-1-ylmethyl)pyridin-3-yl)-1H-indazole], the EC50 in experiment [1] turned out to be 1840 nM; with SW480 colon cancer cells it was 4340 nM; in experiment [2], 2420 nM; with IL-6 (THP-1 cells), 503 nM. Moreover, in experiment [3], the Emax came out at 25%.

With `c1ncc(-c2ccc3[nH]nc(-c4cc5c(N6CCCCC6)cncc5[nH]4)c3c2)cn1` [Compound 195, 3-(4-(Piperidin-1-yl)-1H-pyrrolo[2,3-c]pyridin-2-yl)-5-(pyrimidin-5-yl)-1H-indazole], the EC50 in experiment [1] was 1760 nM; with SW480 colon cancer cells, 2900 nM; in experiment [2] it was 1080 nM; in the experiment on IL-6 (THP-1 cells), 5610 nM. For the same compound, in experiment [3], the Emax amounted to 38%.

As for `CN1CCN(c2cncc3[nH]c(-c4n[nH]c5ccc(-c6cncc(N)c6)cc45)cc23)CC1` [Compound 227, 5-(3-(4-(4-Methylpiperazin-1-yl)-1H-pyrrolo[2,3-c]pyridin-2-yl)-1H-indazol-5-yl)pyridin-3-amine], the EC50 in experiment [1] was 8250 nM; in the experiment on SW480 colon cancer cells it was more than 10000 nM; in experiment [2], 5310 nM; in experiment [3], 30 nM; in the experiment on IL-6 (THP-1 cells), more than 10000 nM. The results for the inhibition at 10 µM with SW480 colon cancer cells and with IL-6 (THP-1 cells) were 37.2% and 48.5%, respectively. In experiment [3], the Emax was determined as 51%.

Take `CN1CCN(c2cncc3[nH]c(-c4n[nH]c5ccc(-c6cccnc6)cc45)cc23)CC1` [Compound 228, 3-(4-(4-Methylpiperazin-1-yl)-1H-pyrrolo[2,3-c]pyridin-2-yl)-5-(pyridin-3-yl)-1H-indazole]: the EC50 was determined as 4060 nM in experiment [1], 4020 nM with SW480 colon cancer cells, 774 nM in experiment [2] and 1370 nM with IL-6 (THP-1 cells). The Emax in experiment [3] came to 20%.

Take `CN1CCN(c2cncc3[nH]c(-c4n[nH]c5ccc(-c6cncc(NC(=O)CC(C)(C)C)c6)cc45)cc23)CC1` [Compound 240, 3,3-Dimethyl-N-(5-(3-(4-(4-methylpiperazin-1-yl)-1H-pyrrolo[2,3-c]pyridin-2-yl)-1H-indazol-5-yl)pyridin-3-yl)butanamide]: the EC50 in experiment [1] worked out at 3480 nM; in the experiment on SW480 colon cancer cells, 4450 nM; in experiment [2], 2650 nM; with IL-6 (THP-1 cells), 500 nM. Besides, in experiment [3], the Emax was 31%.
